Legend:
human potassium Kv1.3 [1] = biological target: T1, human potassium Kv1.3 (Homo sapiens, UniProt P22001); experiment: Potassium Kv1.3 autopatch electrophysiology method, percentage charge inhibition; format: cell-based; conditions: concentration not given (compounds made up at 1 μM and 10 μM)
T1 construct: expressed in transfected cells; host or cells: stably transfected cells grown in serum-free medium for CHO cells (CHO inferred from the medium)
Protocol: 2. Electrophysiological Examination of Test Compounds on the Kv1.3-Mediated Potassium Current (Potassium Kv1.3 Autopatch Electrophysiology Method)
In another set of experiments, the inhibition of the potassium Kv1.3 channel has been measured.
Cells stably transfected with cDNA for human potassium Kv1.3 (in pcDNA3.1) were grown in Ex-cell 302 serum-free medium for CHO cells, supplemented with 10 μl/ml [100×] glutamine, 500 μg/ml G418, and 1% HT supplement (50×, hypoxanthine and thymidine). The cells were cultured in 350 ml spinner (Techne) spun at 80 rpm, at 37° C. in a water-saturated 5% CO2 incubator. The day of the preparation an aliquot of cells was 5 times diluted in fresh media and counted with a glass counting chamber type Malassez. Then six tubes of 10 ml were prepared at 6×10^6 c/ml. The tubes were then placed at 4° C. until their use.
The external bathing solution contained (in mM): 150 NaCl, 10 KCl, 1 MgCl2, 3 CaCl2 and 10 HEPES. The pH was adjusted to 7.4 with NaOH. Patch pipettes were filled with a pipette solution of composition (in mM): 100 K-Gluconate, 20 KCl, 1 MgCl2, 1 CaCl2, 10 HEPES, 11 EGTA, 5 ATP-Na2 and 2 Glutathione. The pH was adjusted to 7.2 with KOH. Using fresh 100 ml bathing solution, 0.05% BSA re-suspension solution (0.05 g BSA/100 ml bather) was prepared.
Compounds were dissolved in DMSO (100%) and made up in the external bather at concentrations of 1 μM and 10 μM. All experiments were conducted at room temperature.
Two tubes of cell suspension were centrifuged at 1000 rpm for 4 minutes at room temperature. 10 ml of supernatant was carefully aspirated and discarded from each tube, with care being taken not to aspirate the cell pellet sitting at the bottom of the tube. The cell pellet of each tube was broken-up by gentle manual agitation of the tube. 600 μl of re-suspension solution was added to the cell pellet, followed by a gentle trituration step to re-suspend the cells. Once re-suspended, 600 μl of solution per tube was removed from each tube, such that 1.2 ml of cell suspension was obtained in total and placed in a temperature-controlled cell hotel, set at either 4° C. or dew point. Cells were maintained in suspension in the hotel through gentle trituration every 30 s via an automatic cell suspension system.
Harvard borosilicate capillary glass (GC1507F-10, […], supplied in 100 mm lengths) was cut down to 24 mm lengths using a Dagen capillary cutter. Short (13 mm) patch pipettes were pulled using a 2-stage pull on a specially adapted DMZ pipette puller (Zeitz Instruments). Patch pipettes typically have resistances of 2.3-3.5 MΩ. As the patch pipettes were pulled in batches, pipette tip resistance was measured every tenth pipette using a Tenma meter in order to maintain consistency of tip resistance. Pulled pipettes were stored in Petri dish before filling.
Each pipette was fully back-filled (from the tip to the end) using the internal pipette solution and the pipette tip was dipped in Sigmacote (Sigma). The pipette was then precisely inserted, tip first, into a pipette holder using a custom-made, pneumatic insertion rig, with the blunt end of the patch pipette sitting proud of the bottom of the pipette holder.
Whole cell patch-clamp recordings (WCRs) were made using the AP2, which incorporates an EPC9 or EPC10 amplifier (HEKA, Germany) under control of Pulse software (v8.54 or v8.76, HEKA, Germany), the patch plate contact fixture, a Gilson autosampler for cell delivery (the cell sampler), a Gilson autosampler for drug preparation (the auto-sampler), the drug application system (DAS), a feedback-controlled suction device for enabling high resistance GΩ seals to be formed for the whole cell recording mode to be attained, a cell re-suspension system, a temperature-controlled cell hotel, a vacuum line and associated pumps for applying suction and for draining the patch plate wells of bather.
Under control of the AP2 software, automated patch-clamping was initiated. […]

human potassium Kv1.3 [2] = biological target: T1, human potassium Kv1.3; experiment: Electrophysiological examination (whole-cell patch-clamp) of the Kv1.3-mediated potassium current in CHO cells; format: cell-based
Protocol: 1. Electrophysiological Examination of Test Compounds on the KV1.3-Mediated Potassium Current
cDNA coding for the human potassium Kv1.3 was cloned into a standard vector. A C-terminal epitope-tag was introduced via PCR. The plasmid was sequenced and subsequently introduced into cells and a clonal cell line was established. Expression of protein was analyzed by means of immunofluorescence using antibodies directed against the epitope-tag.
Experiments were performed in CHO cells stably expressing the potassium Kv1.3 potassium channel. […]
Patch-clamp experiments were performed in the voltage-clamp mode (Hamill et al., 1981) and whole-cell currents were recorded. Patch pipettes were pulled from borosilicate glass tubes. Current signals were amplified and digitized by an EPC patch-clamp amplifier (HEKA-Electronics, Lambrecht, Germany), stored and analyzed on a personal computer using the Pulse/Pulsefit software (HEKA, Lambrecht, Germany). Experiments were conducted at room temperature.
For investigating effects and reversibility of a test compound on the Kv1.3 potassium channel, CHO cells were clamped at a holding potential (HP) of −80 mV. The following stimulation protocol (scheme 1) was applied successively and the induced currents have been recorded: […]
The application protocol of the test compound is depicted in scheme 2. […] Nonspecific current reduction was calculated and serves for correction procedures during data analysis. […] Effect of the test compound was analyzed between stimulus nos. […]
The appropriate experiment was selected from the data tree in the Pulse software. […] The leak current amplitude during the prepulse to −90 mV and the peak current amplitude of the test-pulse to +40 mV were measured by placing the cursors on the oscilloscope screen (FIG. 3). […]
FIG. 1: Kv1.3-mediated potassium current. […] The two cursors on the right indicate the range of the test pulse, where the peak current amplitude was evaluated (205-230 ms of the test pulse to +40 mV). The two cursors on the left indicate the area where the mean leak current was evaluated (100-140 ms of the test pulse to −90 mV). […]

[3] = Solubility as noted during the Kv1.3 patch-clamp experiments; conditions: bath solution; 0.1% BSA used to overcome it

T1 sequence (P22001 whole entry): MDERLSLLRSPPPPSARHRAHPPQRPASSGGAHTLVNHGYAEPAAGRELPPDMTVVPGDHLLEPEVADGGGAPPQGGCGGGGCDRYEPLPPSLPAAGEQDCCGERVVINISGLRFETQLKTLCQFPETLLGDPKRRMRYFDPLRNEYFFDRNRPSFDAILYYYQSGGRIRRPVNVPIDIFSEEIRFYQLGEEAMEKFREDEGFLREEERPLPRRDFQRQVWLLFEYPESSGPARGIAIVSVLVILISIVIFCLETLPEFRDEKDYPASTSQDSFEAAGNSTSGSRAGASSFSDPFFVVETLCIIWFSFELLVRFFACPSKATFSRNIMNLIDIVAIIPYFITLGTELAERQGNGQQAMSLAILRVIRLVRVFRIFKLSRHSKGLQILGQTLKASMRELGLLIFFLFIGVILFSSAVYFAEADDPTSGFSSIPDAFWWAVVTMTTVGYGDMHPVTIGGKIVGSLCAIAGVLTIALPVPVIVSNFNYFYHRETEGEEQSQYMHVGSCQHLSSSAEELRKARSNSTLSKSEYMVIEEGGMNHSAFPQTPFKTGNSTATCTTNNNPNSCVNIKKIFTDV

SMILES | Inhibition of the Potassium Kv1.3 channel (%) (human potassium Kv1.3 [1]) | further results
CN[C@@H](Cc1c[nH]c2ccccc12)C(=O)N1CC(c2ccccc2)C(c2ccc(Cl)cc2)=N1 (stereo partly shown) | 87.8 | 
CNC(=NS(=O)(=O)c1ccc(Cl)cc1)N1CC(c2cccnc2)C(c2ccc(Cl)cc2)=N1 (stereo not shown) | 88.7 | 
CC1=Nc2ccc(Cl)cc2S(=O)(=O)N1 [Diazoxide, reference compound] | 46.5 | 
O=S(=O)(N=C(NCCF)N1CC(c2ccccc2)C(c2ccc(Cl)cc2)=N1)c1ccc(Cl)cc1 (stereo not shown) | 77.1 | 
Cc1c(C(=O)c2cccc3ccccc23)c2cccc3c2n1[C@H](CN1CCOCC1)CO3 [R(+)-WIN55212-2, reference compound] | 81.5 | 
CN1CCC(CNC(=NS(=O)(=O)c2ccc(Cl)cc2)N2CC(c3ccccc3)C(c3ccc(Cl)cc3)=N2)C1 (stereo not shown) | 96.2 | 
CCc1c(C(=O)NN2CCCCC2)nn(-c2ccc(Cl)cc2Cl)c1-c1ccc(Br)cc1 [SR-147778, reference compound] | 63.7 | 
CNC(=NS(=O)(=O)N(C)C)N1CC(c2cccc(F)c2)C(c2ccc(Cl)cc2)=N1 (stereo not shown) | 88.1 | 
CC1(NC2=NS(=O)(=O)c3sc(Cl)cc3N2)CC1 [NN414, reference compound] | 45.1 | 
CCN(CC)C(=O)c1cn(-c2ccc(Cl)cc2)c(-c2ccc(Cl)cc2Cl)n1 | 76.2 | 
CN=C(NS(=O)(=O)c1ccc(Cl)cc1)N1C[C@H](c2ccccc2)C(c2ccc(Cl)cc2)=N1 [example compound 1] |  | Effect on current amplitude (in words) (human potassium Kv1.3 [2]; 10 μM example compound 1, time course): significant current reduction; Hill coefficient nH (human potassium Kv1.3 [2]; in the presence of 0.1% BSA, fit of equation (4)): 0.72±0.22; Effect on outward Kv1.3-mediated current amplitudes (in words) (human potassium Kv1.3 [2]; over the tested concentrations): reduced in a concentration-dependent manner; Solubility (in words) [3]: low solubility
CCCCCCC(C)(C)c1cc(OC)c([C@H]2C=C(CO)[C@H]3C[C@@H]2C3(C)C)c(OC)c1 [HU-308, reference compound] | 81.2 | 
CNC(=NS(=O)(=O)N1CCC(O)CC1)N1CC(c2ccccc2)C(c2ccc(Cl)cc2)=N1 (stereo not shown) | 92.8 | 
CON/C(=N\S(=O)(=O)c1ccc(Cl)cc1)N1C[C@H](c2cccc(F)c2)C(c2ccc(Cl)cc2)=N1 | 76.0 | 
Cc1c(C(=O)NN2CCCCC2)nn(-c2ccc(Cl)cc2Cl)c1-c1ccc(Cl)cc1 [Rimonabant, reference compound] | 89.2 | 
CN(C)CCNC(=NS(=O)(=O)N1CCCCC1)N1CC(c2ccccc2)C(c2ccc(Cl)cc2)=N1 (stereo not shown) | 58.4 | 

From US20070191357A1, “METHODS OF USING POTASSIUM CHANNEL INHIBITING COMPOUNDS” (priority 2005, published 2007)
